The values below come from ChEMBL document CHEMBL1201862, “PubChem BioAssay data set” (2004).

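Growth conditions: 96-well plates. Treatment: test compound, 48 hours, 5 concentrations. Analysis: linear interpolation between bracketing concentrations; unreached endpoints set to highest concentration. Abbreviation: GI50, concentration required for 50% inhibition of growth.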 Activity calls are given as the source filed them. Rule as the data show it: active = GI50 up to about 1.1 µM and inactive = higher.

Test systems include HCT-15; SF-539; SN12C; SW-620; HCC 2998; EKVX; NCI-H226; OVCAR-3; A549; DMS-114; LOX IMVI; SNB-19; SNB-78; SK-MEL-28; ACHN; HOP-92; NCI/ADR-RES; MDA-MB-231; Hs-578T.
Common to all, as to assay: DTP human tumour cell line panel, 48 h

Regarding `Cc1cc(N(CCC#N)S(=O)(=O)c2ccccc2)ccc1/C=C1N=C(/C=C/c2ccccc2)OC\1=O`, the GI50 in the assay on HCT-15 is over 100 µM; in the assay on SF-539, > 100 µM (inactive); in the assay with SN12C it was > 100 µM (inactive); in the assay on SW-620, > 100 µM (inactive); with HCC 2998, > 100 µM (inactive); in the assay on EKVX it was > 100 µM (inactive). The GI50 in the assay on NCI-H226 was > 100 µM (inactive); with OVCAR-3, > 100 µM (inactive); with A549, > 100 µM (inactive); in the assay on DMS-114 it was 94.4 µM (inactive); in the assay on LOX IMVI, > 100 µM (inactive); with SNB-19, > 100 µM (inactive). Also, the GI50 with SNB-78 is 80.5 µM (inactive); with SK-MEL-28 it was > 100 µM (inactive); with ACHN, > 100 µM (inactive).

Turning to `O=c1[nH]cc(OCC(F)(F)F)c(=O)[nH]1`, the concentration for 50% growth inhibition (GI50) with HCT-15 is over 100 µM; with SF-539, > 100 µM (inactive); in the assay on SN12C it was > 100 µM (inactive); in the assay on SW-620, > 100 µM (inactive); with HCC 2998, > 100 µM (inactive); in the assay with EKVX, > 100 µM (inactive). In addition, the GI50 in the assay with HOP-92, with OVCAR-3, in the assay with A549, with DMS-114, in the assay with LOX IMVI and in the assay on SNB-19 was > 100 µM (inactive) throughout. For the same compound, the GI50 with SNB-78, in the assay on SK-MEL-28 and in the assay with ACHN was > 100 µM (inactive) in each case.

Turning to `O=C(NC12CC3CC(CC(C3)C1)C2)C(=O)c1c[nH]c2ccc([N+](=O)[O-])cc12`, the concentration for 50% growth inhibition (GI50) was over 78.9 µM in the assay with HCT-15; 46.1 µM (inactive) in the assay with SF-539; 31 µM (inactive) with SN12C; 31.7 µM (inactive) in the assay with SW-620; > 100 µM (inactive) with HCC 2998; 97.3 µM (inactive) with EKVX. The GI50 in the assay on HOP-92 is 30.3 µM (inactive); with NCI-H226, 23.8 µM (inactive); in the assay with OVCAR-3, 24.8 µM (inactive); in the assay with A549, 11.3 µM (inactive); in the assay with DMS-114 it was 43.9 µM (inactive); with LOX IMVI it was 15.3 µM (inactive). Further, the GI50 in the assay on SNB-19 is > 20.1 µM (inactive); in the assay on SK-MEL-28, 85.1 µM (inactive); in the assay with ACHN it was 90.4 µM (inactive).

For `COc1ccc(/C=C2\C(=O)N(C(=O)c3ccc(NC(C)=O)cc3)N=C2C)cc1OC`, the GI50 is over 100 µM with HCT-15; > 100 µM (inactive) with SF-539; > 100 µM (inactive) with SN12C; > 100 µM (inactive) in the assay with SW-620; > 100 µM (inactive) with HCC 2998; > 100 µM (inactive) in the assay on EKVX. Further, the GI50 in the assay with NCI-H226, with OVCAR-3, in the assay with A549, in the assay with DMS-114, in the assay with LOX IMVI and in the assay on SNB-19 was > 100 µM (inactive) each time. Also, the GI50 in the assay on SNB-78, in the assay on SK-MEL-28 and in the assay with ACHN was > 100 µM (inactive) throughout.

For `O=[N+]([O-])c1nccn1COCCBr`, the GI50 in the assay with HCT-15 is over 100 µM; in the assay on SF-539, > 100 µM (inactive); with SN12C, > 100 µM (inactive); in the assay with SW-620 it was > 100 µM (inactive); with EKVX, > 100 µM (inactive); in the assay with HOP-92, > 100 µM (inactive). The GI50 in the assay on NCI-H226, in the assay on OVCAR-3, with A549, with DMS-114, in the assay on LOX IMVI and in the assay with SNB-19 was > 100 µM (inactive) each time. For the same compound, the GI50 in the assay with SK-MEL-28 and in the assay with ACHN was > 100 µM (inactive) each time.

As to `Nc1ncc(CN2CCCC2)c(-c2ccccc2O)n1`, the GI50 was over 750 µM in the assay with HCT-15; > 750 µM (inactive) in the assay on SF-539; > 750 µM (inactive) with SN12C; > 750 µM (inactive) with SW-620; > 750 µM (inactive) with HCC 2998; > 100 µM (inactive) in the assay on EKVX. Also, the GI50 in the assay with HOP-92 is > 750 µM (inactive); with NCI-H226, > 750 µM (inactive); in the assay with OVCAR-3 it was > 750 µM (inactive); with A549, > 750 µM (inactive); with DMS-114, > 750 µM (inactive); in the assay on LOX IMVI it was 38.4 µM (inactive). For the same compound, the GI50 in the assay on SNB-19 is > 750 µM (inactive); in the assay on NCI/ADR-RES it was > 100 µM (inactive); in the assay with SK-MEL-28 it was > 750 µM (inactive); in the assay with ACHN, > 750 µM (inactive).

Turning to `CCOC(=O)C1(Cc2ccccc2)CCCCCN1` (stereo not drawn), the GI50 with HCT-15 is over 100 µM; in the assay with SN12C, > 100 µM (inactive); in the assay on SW-620, > 100 µM (inactive); in the assay on HCC 2998, > 100 µM (inactive); with EKVX, > 100 µM (inactive); in the assay on HOP-92 it was > 100 µM (inactive). The GI50 in the assay on OVCAR-3, in the assay on A549, in the assay with DMS-114, with LOX IMVI, in the assay with SNB-78 and in the assay with SK-MEL-28 was > 100 µM (inactive) each time. In addition, the GI50 with ACHN was > 100 µM (inactive).

As to `C=C1CC2CC(O)CC(C1)C2` (stereo not drawn), the GI50 in the assay on SF-539, with SN12C, in the assay on SW-620, in the assay with EKVX, in the assay on HOP-92 and in the assay on NCI-H226 was > 100 µM (inactive) in each case. Further, the GI50 in the assay with OVCAR-3, in the assay on A549, in the assay with DMS-114, in the assay on LOX IMVI, in the assay with SNB-19 and in the assay with SNB-78 was > 100 µM (inactive) in each case. The GI50 in the assay with SK-MEL-28 and in the assay on ACHN was > 100 µM (inactive) throughout.

Regarding `CC(C)COC(=O)N1N=NC2C3OC(CC3=O)C21` (stereo not drawn), the concentration for 50% growth inhibition (GI50) with HCT-15 is over 100 µM; in the assay on SF-539 it was > 100 µM (inactive); with SN12C, > 100 µM (inactive); with SW-620, > 100 µM (inactive); with HCC 2998, > 100 µM (inactive); in the assay on EKVX, > 100 µM (inactive). In addition, the GI50 in the assay on HOP-92, in the assay with NCI-H226, in the assay with OVCAR-3, with DMS-114, with LOX IMVI and with SNB-19 was > 100 µM (inactive) each time. Besides, the GI50 with SK-MEL-28 and with ACHN was > 100 µM (inactive) throughout.

On to `CCCCCCCCCCCCCC(=O)OCC1OC(=O)CC1O` (stereo not drawn), for which the GI50 in the assay with HCT-15 is 25.4 µM; in the assay with SF-539, > 100 µM (inactive); in the assay on SN12C, > 100 µM (inactive); in the assay with SW-620 it was > 100 µM (inactive); in the assay on HCC 2998 it was > 100 µM (inactive); in the assay with EKVX, > 100 µM (inactive). Further, the GI50 in the assay on HOP-92 is 7.36 µM (inactive); with OVCAR-3, > 100 µM (inactive); in the assay on A549 it was > 100 µM (inactive); in the assay with DMS-114 it was 49.4 µM (inactive); in the assay on LOX IMVI, 51.5 µM (inactive); in the assay on SNB-19, > 100 µM (inactive). Also, the values for the GI50 with SNB-78 and in the assay with ACHN were 56.1 µM (inactive) and > 100 µM (inactive), respectively.

In the case of `Nc1nc(N)c2ncn(CCCC(c3ccccc3)P(=O)(O)O)c2n1` (stereo not drawn), the GI50 is over 100 µM in the assay on HCT-15; > 100 µM (inactive) with SF-539; > 100 µM (inactive) with SN12C; > 100 µM (inactive) in the assay on SW-620; > 100 µM (inactive) in the assay on HCC 2998; > 100 µM (inactive) in the assay with HOP-92. Moreover, the GI50 with OVCAR-3, in the assay with A549, in the assay on DMS-114, in the assay with LOX IMVI, in the assay on SNB-19 and in the assay with SNB-78 was > 100 µM (inactive) in each case. Further, the GI50 with SK-MEL-28 and with ACHN was > 100 µM (inactive) each time.

Regarding `C[C@@H]1[C@H](c2ccccc2)O[B-]2(c3ccc(Br)cc3)OC(=O)C[N+]12C` (stereo partly drawn), the concentration for 50% growth inhibition (GI50) with HCT-15 was over 100 µM; in the assay with SF-539 it was > 100 µM (inactive); with SN12C, > 100 µM (inactive); in the assay with SW-620 it was > 100 µM (inactive); with HCC 2998, > 100 µM (inactive); with EKVX, > 100 µM (inactive). For the same compound, the GI50 was 44.3 µM (inactive) with HOP-92; > 100 µM (inactive) with A549; > 100 µM (inactive) in the assay on DMS-114; > 100 µM (inactive) in the assay on LOX IMVI; > 100 µM (inactive) in the assay on SNB-19; 35.4 µM (inactive) with SNB-78. Besides, the values for the concentration for 50% growth inhibition (GI50) in the assay with SK-MEL-28 and in the assay on ACHN were 0.1 µM (active) and 86.9 µM (inactive), respectively.

Turning to `CC1(CO)OC1COCc1ccccc1` (stereo not drawn), the GI50 with HCT-15 is over 100 µM; in the assay with SF-539, > 100 µM (inactive); in the assay with SN12C, > 100 µM (inactive); in the assay with SW-620, > 100 µM (inactive); in the assay on EKVX it was > 100 µM (inactive); in the assay with HOP-92, > 100 µM (inactive). Further, the GI50 with NCI-H226, in the assay on OVCAR-3, with A549, in the assay on DMS-114, with LOX IMVI and with SNB-19 was > 100 µM (inactive) each time. Besides, the GI50 in the assay with SNB-78 and in the assay on ACHN was > 100 µM (inactive) in each case.

Turning to `CC(=O)O[C@H]1C(=O)[C@@]2(C)[C@H]([C@H](OC(=O)c3ccccc3)[C@]3(O)C[C@H](OC(=O)[C@H](O)[C@@H](NC(=O)c4ccccc4)c4ccccc4)C(C)=C1C3(C)C)[C@]1(OC(C)=O)CO[C@@H]1C[C@@H]2O` [PACLITAXEL], the GI50 in the assay with SF-539 is 0.00373 µM (active); in the assay with SN12C, 0.00481 µM (active); in the assay on SW-620 it was 0.00326 µM (active); in the assay with HCC 2998 it was 0.00341 µM (active); in the assay with MDA-MB-231, 0.054 µM (active); in the assay with LOX IMVI, 0.00355 µM (active). Besides, the GI50 with SNB-19 was 0.0121 µM (active); in the assay with SNB-78, 0.00982 µM (active); in the assay on Hs-578T, 0.00597 µM (active); with NCI/ADR-RES it was 3.11 µM (inactive); in the assay on ACHN, 0.661 µM (active).

Usually GI50 stands for the concentration giving 50% growth inhibition.
